Common to all, as to assay type: biochemical
One test concerns the target T1, LATS1 (Homo sapiens, UniProt O95835).
T1 sequence (O95835 1-1130): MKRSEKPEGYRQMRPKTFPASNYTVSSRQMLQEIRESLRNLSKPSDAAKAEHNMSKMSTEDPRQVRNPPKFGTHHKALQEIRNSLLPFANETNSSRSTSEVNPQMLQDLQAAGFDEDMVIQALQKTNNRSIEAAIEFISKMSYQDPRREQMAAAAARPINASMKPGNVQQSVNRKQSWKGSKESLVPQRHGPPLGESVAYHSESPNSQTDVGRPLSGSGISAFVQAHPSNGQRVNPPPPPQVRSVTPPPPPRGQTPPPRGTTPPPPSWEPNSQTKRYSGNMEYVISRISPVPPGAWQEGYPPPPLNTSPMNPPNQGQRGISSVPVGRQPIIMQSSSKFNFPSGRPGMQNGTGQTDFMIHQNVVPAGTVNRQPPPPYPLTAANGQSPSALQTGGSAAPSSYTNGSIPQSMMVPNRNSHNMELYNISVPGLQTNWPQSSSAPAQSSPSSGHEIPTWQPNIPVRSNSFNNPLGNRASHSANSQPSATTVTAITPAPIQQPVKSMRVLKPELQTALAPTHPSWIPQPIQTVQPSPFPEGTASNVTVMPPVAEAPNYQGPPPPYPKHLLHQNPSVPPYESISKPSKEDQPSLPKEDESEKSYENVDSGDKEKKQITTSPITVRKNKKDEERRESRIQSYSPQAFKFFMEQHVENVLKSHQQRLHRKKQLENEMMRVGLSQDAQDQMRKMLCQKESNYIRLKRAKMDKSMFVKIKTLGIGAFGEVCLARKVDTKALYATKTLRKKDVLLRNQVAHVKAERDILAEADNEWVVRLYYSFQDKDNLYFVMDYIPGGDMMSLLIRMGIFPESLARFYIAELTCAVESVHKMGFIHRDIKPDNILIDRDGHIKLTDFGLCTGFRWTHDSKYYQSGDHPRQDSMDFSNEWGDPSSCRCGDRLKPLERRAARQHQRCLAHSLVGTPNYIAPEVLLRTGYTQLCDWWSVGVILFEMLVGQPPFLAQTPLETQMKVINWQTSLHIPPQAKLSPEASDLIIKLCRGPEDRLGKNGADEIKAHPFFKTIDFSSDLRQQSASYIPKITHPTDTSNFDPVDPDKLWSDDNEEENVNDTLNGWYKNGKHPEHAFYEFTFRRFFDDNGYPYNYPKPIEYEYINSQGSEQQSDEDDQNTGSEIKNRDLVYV
The test is described as follows: RBC HotSpot kinase assay (33P-ATP, P81 filter-binding), LATS1. The conditions noted are these: Table 28, biochemical kinase assay; read-out: LATS1 IC50. An outline of the steps: (§1)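 Hepes pH 7.5/MgCl2/EGTA/Brij35/BSA/Na3VO4/DTT buffer, cofactors per kinase; cpd acoustically dispensed, 20 min preinc RT; start w/ 33P-ATP, 2 h RT; P81 filter readout; 10-pt singlet IC50.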

In the next test the target is T2, LATS2 (Homo sapiens, UniProt Q9NRM7).
T2 sequence (Q9NRM7 1-1088): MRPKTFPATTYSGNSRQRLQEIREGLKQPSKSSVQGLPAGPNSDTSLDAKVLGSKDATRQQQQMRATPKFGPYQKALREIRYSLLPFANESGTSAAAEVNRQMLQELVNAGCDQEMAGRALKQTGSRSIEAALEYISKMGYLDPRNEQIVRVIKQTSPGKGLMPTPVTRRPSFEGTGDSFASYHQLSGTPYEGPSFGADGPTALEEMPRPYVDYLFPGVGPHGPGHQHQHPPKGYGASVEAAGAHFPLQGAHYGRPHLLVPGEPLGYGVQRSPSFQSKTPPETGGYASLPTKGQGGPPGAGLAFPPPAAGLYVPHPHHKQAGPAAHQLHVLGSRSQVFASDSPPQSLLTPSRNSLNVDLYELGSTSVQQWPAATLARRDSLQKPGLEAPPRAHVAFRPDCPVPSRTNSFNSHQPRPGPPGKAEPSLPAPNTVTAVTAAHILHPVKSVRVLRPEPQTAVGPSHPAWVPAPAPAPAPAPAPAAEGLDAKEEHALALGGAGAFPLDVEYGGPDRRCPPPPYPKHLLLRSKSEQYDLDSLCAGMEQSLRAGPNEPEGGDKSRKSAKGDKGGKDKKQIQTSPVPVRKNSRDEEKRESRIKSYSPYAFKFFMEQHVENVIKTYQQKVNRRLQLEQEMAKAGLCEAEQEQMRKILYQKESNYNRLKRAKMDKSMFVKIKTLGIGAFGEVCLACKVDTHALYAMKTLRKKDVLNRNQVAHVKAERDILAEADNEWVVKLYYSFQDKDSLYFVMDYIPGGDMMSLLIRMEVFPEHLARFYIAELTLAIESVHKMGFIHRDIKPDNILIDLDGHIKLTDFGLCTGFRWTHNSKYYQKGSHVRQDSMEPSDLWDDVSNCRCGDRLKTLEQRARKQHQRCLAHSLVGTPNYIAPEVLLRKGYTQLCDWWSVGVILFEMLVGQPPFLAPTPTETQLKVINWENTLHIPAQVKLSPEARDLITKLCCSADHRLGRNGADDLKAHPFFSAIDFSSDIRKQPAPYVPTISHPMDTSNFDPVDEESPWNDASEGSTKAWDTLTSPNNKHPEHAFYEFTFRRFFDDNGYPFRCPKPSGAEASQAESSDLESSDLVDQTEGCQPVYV
The test is described as follows: RBC HotSpot kinase assay (33P-ATP, P81 filter-binding), LATS2. The settings on record: Table 28, biochemical kinase assay; read-out: LATS2 IC50. The essentials: as §1

The target of another test is AKT (Homo sapiens, UniProt P31749). The test is described as follows: RBC HotSpot kinase assay (33P-ATP, P81 filter-binding), AKT. The conditions noted are these: Table 28, biochemical kinase assay; read-out: AKT IC50. An outline of the steps:
as §1

Sequence of AKT (P31749 whole entry): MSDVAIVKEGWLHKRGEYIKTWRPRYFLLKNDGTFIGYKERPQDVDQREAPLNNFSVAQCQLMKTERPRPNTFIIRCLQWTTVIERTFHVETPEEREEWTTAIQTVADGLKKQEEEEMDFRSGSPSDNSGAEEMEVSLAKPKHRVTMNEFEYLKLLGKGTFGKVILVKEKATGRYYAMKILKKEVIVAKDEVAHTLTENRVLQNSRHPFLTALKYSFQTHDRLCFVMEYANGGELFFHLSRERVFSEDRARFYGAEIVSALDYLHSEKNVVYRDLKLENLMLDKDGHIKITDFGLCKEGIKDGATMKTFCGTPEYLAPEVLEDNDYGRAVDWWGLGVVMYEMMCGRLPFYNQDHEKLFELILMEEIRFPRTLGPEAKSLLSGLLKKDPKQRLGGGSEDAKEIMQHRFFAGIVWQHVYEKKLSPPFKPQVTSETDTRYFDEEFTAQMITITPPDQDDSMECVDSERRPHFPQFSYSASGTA

Turning to `CC(C)c1c[nH]c2nccc(-c3ccc(CN)c(-c4ccccc4)c3)c12` [Compound 220, (5-(3-isopropyl-1H-pyrrolo[2,3-b]pyridin-4-yl)-[1,1′-biphenyl]-2-yl)methanamine], the IC50 – broadly, the concentration at which inhibition is half-maximal – stood at 236 nM on LATS1, 115 nM on LATS2 and 1010 nM on AKT.

As for `Cc1cc(-c2ccnc3[nH]cc(F)c23)cc(C)c1CN` [Compound 222, (4-(3-fluoro-1H-pyrrolo[2,3-b]pyridin-4-yl)-2,6-dimethylphenyl) methanamine], the results for the IC50 at LATS1, on LATS2 and on AKT were 16 nM, 31 nM and 470 nM, respectively.

On to `C=C(C)c1c[nH]c2nccc(-c3ccc(CN)c(-c4ccccc4)c3)c12` [Compound 224, (5-(3-(prop-1-en-2-yl)-1H-pyrrolo[2,3-b]pyridin-4-yl)-[1,1′-biphenyl]-2-yl)methanamine], for which the 50% inhibitory concentration (IC50) amounted to 73 nM at LATS1, 35 nM at LATS2 and 1150 nM at AKT.

With `NCc1ccc(-c2cc(N)nc3[nH]ccc23)cc1` [Compound 225, 4-(4-(aminomethyl)phenyl)-1H-pyrrolo[2,3-b]pyridin-6-amine], the IC50 was at least 10000 nM at LATS1, 6420 nM at LATS2 and over 10000 nM at AKT.

For the compound `CC(C)(N)c1ccc(-c2ccnc3[nH]ccc23)cc1` [Compound 226, 2-(4-(1H-pyrrolo[2,3-b]pyridin-4-yl)phenyl)propan-2-amine], the figures for the IC50 at LATS1, on LATS2 and on AKT were 25.4 nM, 1.2 nM and 734 nM, respectively.

Take `NCc1ccc(-c2ccnc3[nH]cc(-c4cccc(C(F)(F)F)c4)c23)cc1` [Compound 227, (4-(3-(3-(trifluoromethyl)phenyl)-1H-pyrrolo[2,3-b]pyridin-4-yl)phenyl) methanamine]: the values for the IC50 on LATS1, on LATS2 and at AKT were 124 nM, 49.3 nM and 3670 nM, respectively.

In the case of `NCc1ccc(-c2ccnc3[nH]cc(-c4cccc(Cl)c4)c23)cc1` [Compound 228, (4-(3-(3-chlorophenyl)-1H-pyrrolo[2,3-b]pyridin-4-yl)phenyl) methanamine], the IC50 amounted to 34 nM at LATS1, 14 nM on LATS2 and 1020 nM at AKT.

As for `Cc1ccccc1-c1c[nH]c2nccc(-c3ccc(CN)cc3)c12` [Compound 229, (4-(3-(o-tolyl)-1H-pyrrolo[2,3-b]pyridin-4-yl)phenyl) methanamine], the concentration for half-maximal inhibition (IC50) at LATS1 worked out at 235 nM; on LATS2 it was 235 nM; on AKT it was 6340 nM.

As for `COCCNc1cc(-c2ccnc3[nH]ccc23)ccc1CN` [Compound 231, 2-(aminomethyl)-N-(2-methoxyethyl)-5-(1H-pyrrolo[2,3-b]pyridin-4-yl)aniline], the values for the IC50 on LATS1, on LATS2 and at AKT were 24 nM, 144 nM and 437 nM, respectively.

`CC(C)c1cc(-c2ccnc3[nH]cc(Cl)c23)ccc1CN` [Compound 232, (4-(3-chloro-1H-pyrrolo[2,3-b]pyridin-4-yl)-2-isopropylphenyl) methanamine]: the IC50 came out at 3.3 nM on LATS1, 11.6 nM at LATS2 and 60.5 nM at AKT.

With `CC(C)c1cc(-c2ccnc3[nH]ccc23)ccc1CN` [Compound 233, (2-isopropyl-4-(1H-pyrrolo[2,3-b]pyridin-4-yl)phenyl) methanamine], the IC50 on LATS1 worked out at 5.6 nM; on LATS2, 35.5 nM; at AKT, 281 nM.

For `NCc1ccc(-c2ccnc3[nH]cc(Cl)c23)cc1-c1ccccc1` [Compound 234, (5-(3-chloro-1H-pyrrolo[2,3-b]pyridin-4-yl)-[1,1′-biphenyl]-2-yl)methanamine], the values for the IC50 at LATS1, on LATS2 and on AKT were 6.5 nM, 23.9 nM and 68.4 nM, respectively.

In the case of `CCC(CC)Nc1cc(-c2ccnc3[nH]ccc23)ccc1CN` [Compound 235, 2-(aminomethyl)-N-(pentan-3-yl)-5-(1H-pyrrolo[2,3-b]pyridin-4-yl)aniline], the IC50 at LATS1 is 412 nM; on LATS2, 371 nM; on AKT, 788 nM.

On to `CCN(CC)c1cc(-c2ccnc3[nH]ccc23)ccc1CNC(C)=O` [Compound 236, N-(2-(diethylamino)-4-(1H-pyrrolo[2,3-b]pyridin-4-yl)benzyl)acetamide], for which the IC50 at LATS1 was found to be 772 nM; on LATS2 it was 887 nM; on AKT, 3590 nM.

`CCN(CC)c1cc(-c2ccnc3[nH]ccc23)ccc1CN` [Compound 237, 2-(aminomethyl)-N,N-diethyl-5-(1H-pyrrolo[2,3-b]pyridin-4-yl)aniline]: the results for the 50% inhibitory concentration (IC50) at LATS1, on LATS2 and at AKT were 12 nM, 23 nM and 100 nM, respectively.

Consider `COc1ccc(-c2c[nH]c3nccc(-c4ccc(CN)cc4)c23)cc1` [Compound 239, (4-(3-(4-methoxyphenyl)-1H-pyrrolo[2,3-b]pyridin-4-yl)phenyl) methanamine], for which the IC50 at LATS1 was found to be 67 nM; on LATS2 it was 26 nM; on AKT it was 1310 nM.

For the compound `C=C(C)c1cc(-c2ccnc3[nH]ccc23)ccc1CN` [Compound 240, (2-(prop-1-en-2-yl)-4-(1H-pyrrolo[2,3-b]pyridin-4-yl)phenyl) methanamine], the IC50 on LATS1 came to 4.3 nM; at LATS2, 33.8 nM; on AKT, 178 nM.

As for `C=C(C)c1c[nH]c2nccc(-c3ccc(CN)cc3)c12` [Compound 241, (4-(3-(prop-1-en-2-yl)-1H-pyrrolo[2,3-b]pyridin-4-yl)phenyl) methanamine], the figures for the IC50 at LATS1, on LATS2 and on AKT were 19 nM, 6 nM and 809 nM, respectively.

As to `COc1ccccc1-c1c[nH]c2nccc(-c3ccc(CN)cc3)c12` [Compound 242, (4-(3-(2-methoxyphenyl)-1H-pyrrolo[2,3-b]pyridin-4-yl)phenyl) methanamine], the IC50 at LATS1 is 11 nM; at LATS2 it was 10 nM; on AKT, 1320 nM.

As for `NCc1ccc(-c2ccnc3[nH]cc(-c4ccc(F)cc4)c23)cc1` [Compound 243, (4-(3-(4-fluorophenyl)-1H-pyrrolo[2,3-b]pyridin-4-yl)phenyl) methanamine], the values for the half-maximal inhibitory concentration (IC50) on LATS1, at LATS2 and at AKT were 72 nM, 24 nM and 2330 nM, respectively.
